According to patent US20060127400A1, “Activation of regulatory T cells by alpha-melanocyte stimulating hormone” (THE SCHEPENS EYE RESEARCH INSTITUTE, INC., priority 1999, published 2006):
No end group written: not given here.

Tested on: CD4+ T cells
Experiment: flow cytometry of intracellular IFN-γ and IL-4 in TCR-stimulated primed T cells
Format: cell-based, mouse (BALB/c)
Conditions: α-MSH 30 pg/ml, anti-CD3, 24 h
Experimental: Flow Cytometry. For immunostaining and flow cytometry, T cells (2×10^6 cells) were obtained from 24 hour cultures of enriched primed T cells TCR-stimulated in the presence of α-MSH as described above. The cells were centrifuged and washed once in 400 μl of brefeldin/PBS buffer (10 mM PBS, 10 μg/ml brefeldin A). The cells were resuspended in 100 μl of PBS/brefeldin and 100 μl of 4% paraformaldehyde/PBS fixing buffer. The cells were incubate at room temperature for 20 minutes with gentle agitation and washed once with 200 μl of brefeldin/PBS, centrifuged, and resuspended in 50 μl of PBS/saponin (10 mM PBS, 1% BSA, 0.1% Na Azide, 0.5% Saponin) and incubated 10 minutes at room temperature. To the cell suspensions 2 μg of FITC-conjugated anti-cytokine antibody (anti-IL-4 or -IFN-γ) or FITC-isotype control was added. […] The stained cells were analyzed by a Coulter Epics flow cytometer calibrated for two color fluorescence, and presented were the fluorescence of blast (proliferating) cells in two dimensions.
To further examine α-MSH suppression of IFN-γ production by T cells, the frequency of IFN-γ producing T cells activated in the presence of α-MSH was assayed by flow cytometry. […] The stained cells were analyzed by two-color flow cytometry gating on the blastogenic, proliferating T cells. […] Percent of analyzed cell population is given for each quadrant in the lower right-hand of each histogram. […]

Substance: α-melanocyte stimulating hormone (SYSMEHFRWGKPV; not fully specified; ends and bridges not checked; UniProt P01189 138-150, looked up) [α-MSH, synthetic α-MSH (Peninsula Laboratories); thirteen-amino acid neuropeptide derived from POMC]
- frequency of IFN-γ positive cells, intracellular IFN-γ staining in CD4+ T cells: substantially shifted toward lower levels
- intracellular IL-4 staining in CD4+ T cells: shift to higher levels
